Data set [1] deals with NCI-H1975. In words: Antiproliferative activity against human NCI-H1975 cells expressing EGFR T790M/L858R mutant incubated for 72 hrs by MTS assay. The settings on record: NCI-H1975, 72 h. It is filed as functional, cell-based.
A further data set has as its system BT-474. In words: Antiproliferative activity against human BT474 cells expressing wild type HER2 incubated for 72 hrs by MTS assay. The settings on record: BT-474, 72 h. It counts as functional, cell-based. For orientation: Tetrazolium assays rely on reduction of a dye to a coloured formazan, in cell work by metabolically active cells.
The test system of data set [2] is MCF7. The data set is described as follows: Antiproliferative activity against human MCF7 cells expressing wild type HER2 incubated for 72 hrs by MTS assay. The following applies: MCF7, 72 h. It is filed as functional, cell-based.
The test system of the next data set is A549. The data set is described as follows: Antiproliferative activity against human A549 cells. It is filed as functional, cell-based.
Data set [3] relates to A-431. In words: Antiproliferative activity against human A431 cells expressing wild type EGFR incubated for 72 hrs by MTS assay. It is filed as functional, cell-based. The settings on record: A-431, 72 h.
In data set [4] the test system is MCF7. The data set is described as follows: Antiproliferative activity against human MCF7 cells expressing wild type HER2. It counts as functional, cell-based.
Data set [5] deals with Epidermal growth factor receptor (Homo sapiens, UniProt P00533, T790M/L858R). In words: Inhibition of EGFR T790M/L858R mutant (unknown origin).
Data set [6] relates to NCI-H1975. In words: Antiproliferative activity against human NCI-H1975 cells expressing EGFR T790M/L858R mutant. It counts as functional, cell-based.
The target in data set [7] is T1, Receptor tyrosine-protein kinase erbB-2 (Homo sapiens, UniProt P04626). The data set is described as follows: Inhibition of HER2 (unknown origin).
T1 sequence (P04626 whole entry): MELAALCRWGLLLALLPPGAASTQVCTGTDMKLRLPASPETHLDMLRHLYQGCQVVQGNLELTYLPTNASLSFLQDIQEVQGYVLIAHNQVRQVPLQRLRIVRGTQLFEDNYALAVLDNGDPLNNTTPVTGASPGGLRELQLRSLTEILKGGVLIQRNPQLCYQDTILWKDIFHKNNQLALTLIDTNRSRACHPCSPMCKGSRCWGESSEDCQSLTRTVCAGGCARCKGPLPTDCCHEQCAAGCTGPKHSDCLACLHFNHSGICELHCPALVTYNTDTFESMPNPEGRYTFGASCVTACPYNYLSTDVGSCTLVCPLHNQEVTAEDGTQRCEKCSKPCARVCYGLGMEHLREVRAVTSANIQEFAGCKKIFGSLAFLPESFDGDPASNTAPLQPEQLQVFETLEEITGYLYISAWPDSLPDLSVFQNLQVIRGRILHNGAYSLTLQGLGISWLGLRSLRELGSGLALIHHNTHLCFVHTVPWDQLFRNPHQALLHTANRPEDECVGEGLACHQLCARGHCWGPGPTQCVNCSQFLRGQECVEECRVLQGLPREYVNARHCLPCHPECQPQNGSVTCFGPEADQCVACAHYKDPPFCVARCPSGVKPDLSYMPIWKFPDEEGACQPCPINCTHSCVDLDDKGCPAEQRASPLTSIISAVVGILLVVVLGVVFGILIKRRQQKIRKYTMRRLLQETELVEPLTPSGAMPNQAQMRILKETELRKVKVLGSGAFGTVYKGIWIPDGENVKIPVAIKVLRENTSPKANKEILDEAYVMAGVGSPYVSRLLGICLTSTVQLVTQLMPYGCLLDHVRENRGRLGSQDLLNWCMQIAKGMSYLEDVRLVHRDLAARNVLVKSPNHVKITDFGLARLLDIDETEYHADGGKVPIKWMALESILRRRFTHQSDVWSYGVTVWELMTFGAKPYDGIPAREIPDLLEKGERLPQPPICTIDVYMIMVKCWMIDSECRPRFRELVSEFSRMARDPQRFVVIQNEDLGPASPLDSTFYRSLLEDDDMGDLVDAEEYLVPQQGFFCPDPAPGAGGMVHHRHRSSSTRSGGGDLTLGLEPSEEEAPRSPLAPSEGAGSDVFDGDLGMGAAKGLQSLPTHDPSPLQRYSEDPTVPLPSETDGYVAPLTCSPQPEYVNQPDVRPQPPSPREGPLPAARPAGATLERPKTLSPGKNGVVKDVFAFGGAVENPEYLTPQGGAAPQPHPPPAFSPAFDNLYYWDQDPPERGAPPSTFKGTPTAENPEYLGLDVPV
The subject of data set [8] is A-431. In words: Antiproliferative activity against human A431 cells expressing wild type EGFR. It counts as functional, cell-based.
The target in data set [9] is T2, Epidermal growth factor receptor (Homo sapiens, UniProt P00533). The data set is described as follows: Inhibition of EGFR (unknown origin).
T2 sequence (P00533 whole entry): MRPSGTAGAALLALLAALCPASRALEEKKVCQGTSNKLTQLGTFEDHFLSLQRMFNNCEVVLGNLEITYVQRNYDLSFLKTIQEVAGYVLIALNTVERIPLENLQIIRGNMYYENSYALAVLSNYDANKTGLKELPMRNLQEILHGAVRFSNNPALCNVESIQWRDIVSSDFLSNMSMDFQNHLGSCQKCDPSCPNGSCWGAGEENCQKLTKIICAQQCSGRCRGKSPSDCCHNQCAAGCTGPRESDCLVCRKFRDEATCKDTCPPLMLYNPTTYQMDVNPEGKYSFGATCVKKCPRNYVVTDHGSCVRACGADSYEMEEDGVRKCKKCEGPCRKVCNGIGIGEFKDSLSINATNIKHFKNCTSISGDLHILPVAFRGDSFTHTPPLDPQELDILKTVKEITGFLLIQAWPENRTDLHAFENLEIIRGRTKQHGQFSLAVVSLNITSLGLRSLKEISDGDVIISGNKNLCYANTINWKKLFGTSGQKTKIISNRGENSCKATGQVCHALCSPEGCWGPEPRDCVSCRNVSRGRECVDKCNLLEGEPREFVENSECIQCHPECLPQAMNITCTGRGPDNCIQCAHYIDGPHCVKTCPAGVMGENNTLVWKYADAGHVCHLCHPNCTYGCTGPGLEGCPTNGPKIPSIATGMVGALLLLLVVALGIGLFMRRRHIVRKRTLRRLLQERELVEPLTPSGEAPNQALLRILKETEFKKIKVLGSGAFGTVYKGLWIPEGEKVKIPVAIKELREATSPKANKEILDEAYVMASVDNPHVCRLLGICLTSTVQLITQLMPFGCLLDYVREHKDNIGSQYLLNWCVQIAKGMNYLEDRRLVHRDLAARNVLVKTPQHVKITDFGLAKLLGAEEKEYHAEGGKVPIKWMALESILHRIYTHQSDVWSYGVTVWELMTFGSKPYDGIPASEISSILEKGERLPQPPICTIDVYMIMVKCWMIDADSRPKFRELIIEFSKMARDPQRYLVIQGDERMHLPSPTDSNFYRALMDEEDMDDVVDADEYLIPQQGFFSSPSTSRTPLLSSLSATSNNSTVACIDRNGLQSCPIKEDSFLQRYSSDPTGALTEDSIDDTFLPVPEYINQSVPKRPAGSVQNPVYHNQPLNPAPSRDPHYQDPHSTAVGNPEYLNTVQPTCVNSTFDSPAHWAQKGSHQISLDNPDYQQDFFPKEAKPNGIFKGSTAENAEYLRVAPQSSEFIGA
For a further data set, the system named is NCI-N87. In words: Antiproliferative activity against human NCI-N87 cells expressing wild type EGFR and HER2 incubated for 72 hrs by MTS assay. The settings on record: NCI-N87, 72 h. It counts as functional, cell-based.
In data set [10] the target is Epidermal growth factor receptor (Homo sapiens, UniProt P00533, L858R/T790M). The data set is described as follows: Inhibition of human EGFR T790M/L858R mutant expressed in mouse Ba/F3 cells. It is filed as cell-based.
The target of data set [11] is Epidermal growth factor receptor (Homo sapiens, UniProt P00533, L858R). In words: Inhibition of human EGFR L858R mutant expressed in mouse Ba/F3 cells. It counts as cell-based.
Chain of Epidermal growth factor receptor (Homo sapiens, UniProt P00533, L858R) (P00533 25-1210 L858R limits assumed): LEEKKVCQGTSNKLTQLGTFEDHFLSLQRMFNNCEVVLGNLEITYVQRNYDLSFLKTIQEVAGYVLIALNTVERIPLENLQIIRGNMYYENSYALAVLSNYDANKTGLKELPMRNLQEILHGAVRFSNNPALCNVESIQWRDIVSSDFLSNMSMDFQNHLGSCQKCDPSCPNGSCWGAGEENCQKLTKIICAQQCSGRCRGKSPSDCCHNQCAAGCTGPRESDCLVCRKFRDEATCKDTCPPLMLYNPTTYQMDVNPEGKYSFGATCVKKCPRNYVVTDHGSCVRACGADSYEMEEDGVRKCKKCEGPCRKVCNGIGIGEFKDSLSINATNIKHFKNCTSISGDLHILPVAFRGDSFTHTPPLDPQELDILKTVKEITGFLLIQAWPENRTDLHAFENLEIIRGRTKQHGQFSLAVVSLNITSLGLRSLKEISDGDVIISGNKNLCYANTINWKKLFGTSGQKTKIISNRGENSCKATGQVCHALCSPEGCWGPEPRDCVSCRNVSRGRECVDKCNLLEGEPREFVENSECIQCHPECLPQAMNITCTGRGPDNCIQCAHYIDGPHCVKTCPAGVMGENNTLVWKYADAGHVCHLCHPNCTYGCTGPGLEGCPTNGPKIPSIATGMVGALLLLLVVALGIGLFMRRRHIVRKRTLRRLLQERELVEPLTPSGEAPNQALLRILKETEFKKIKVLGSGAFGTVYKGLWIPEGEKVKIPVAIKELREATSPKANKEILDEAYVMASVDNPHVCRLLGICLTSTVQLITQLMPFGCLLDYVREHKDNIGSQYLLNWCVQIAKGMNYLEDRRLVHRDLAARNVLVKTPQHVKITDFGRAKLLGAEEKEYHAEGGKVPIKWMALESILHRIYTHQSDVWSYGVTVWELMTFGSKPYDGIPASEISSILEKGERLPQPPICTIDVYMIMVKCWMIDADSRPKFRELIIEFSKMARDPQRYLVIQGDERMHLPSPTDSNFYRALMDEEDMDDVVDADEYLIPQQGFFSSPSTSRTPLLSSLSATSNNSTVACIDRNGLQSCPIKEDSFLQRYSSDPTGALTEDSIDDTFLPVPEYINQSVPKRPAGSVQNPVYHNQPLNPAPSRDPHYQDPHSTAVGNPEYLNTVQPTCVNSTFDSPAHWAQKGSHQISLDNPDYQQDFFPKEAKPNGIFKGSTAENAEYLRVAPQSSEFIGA
For data set [12], the target named is T1, Receptor tyrosine-protein kinase erbB-2. The data set is described as follows: Inhibition of GST-tagged human HER2 catalytic domain expressed in insect cells.
Data set [13] concerns the target Epidermal growth factor receptor (Homo sapiens, UniProt P00533, T790M). The data set is described as follows: Inhibition of human EGFR T790M mutant expressed in mouse Ba/F3 cells. It counts as cell-based.
Data set [14] deals with T2, Epidermal growth factor receptor. The data set is described as follows: Inhibition of GST-tagged human EGFR catalytic domain expressed in insect cells.
The nature of data set [15]: Antiproliferative activity against human NCI-H1819 cells expressing wild type HER2 incubated for 72 hrs by MTS assay. It counts as functional, cell-based. The settings on record: NCI-H1819, 72 h.
Data set [16] can be described thus: Antiproliferative activity against human HS27 cells expressing wild type HER2 incubated for 72 hrs by MTS assay. It is filed as cell-based.
The subject of a further data set is SK-BR-3. In words: Antiproliferative activity against human SKBR3 cells expressing wild type HER2 incubated for 72 hrs by MTS assay. The settings on record: SK-BR-3, 72 h. It counts as functional, cell-based.

The structures appear in SMILES notation. pIC50: −log10 of the molar value.

Chain of Epidermal growth factor receptor (Homo sapiens, UniProt P00533, T790M) (P00533 25-1210 T790M limits assumed): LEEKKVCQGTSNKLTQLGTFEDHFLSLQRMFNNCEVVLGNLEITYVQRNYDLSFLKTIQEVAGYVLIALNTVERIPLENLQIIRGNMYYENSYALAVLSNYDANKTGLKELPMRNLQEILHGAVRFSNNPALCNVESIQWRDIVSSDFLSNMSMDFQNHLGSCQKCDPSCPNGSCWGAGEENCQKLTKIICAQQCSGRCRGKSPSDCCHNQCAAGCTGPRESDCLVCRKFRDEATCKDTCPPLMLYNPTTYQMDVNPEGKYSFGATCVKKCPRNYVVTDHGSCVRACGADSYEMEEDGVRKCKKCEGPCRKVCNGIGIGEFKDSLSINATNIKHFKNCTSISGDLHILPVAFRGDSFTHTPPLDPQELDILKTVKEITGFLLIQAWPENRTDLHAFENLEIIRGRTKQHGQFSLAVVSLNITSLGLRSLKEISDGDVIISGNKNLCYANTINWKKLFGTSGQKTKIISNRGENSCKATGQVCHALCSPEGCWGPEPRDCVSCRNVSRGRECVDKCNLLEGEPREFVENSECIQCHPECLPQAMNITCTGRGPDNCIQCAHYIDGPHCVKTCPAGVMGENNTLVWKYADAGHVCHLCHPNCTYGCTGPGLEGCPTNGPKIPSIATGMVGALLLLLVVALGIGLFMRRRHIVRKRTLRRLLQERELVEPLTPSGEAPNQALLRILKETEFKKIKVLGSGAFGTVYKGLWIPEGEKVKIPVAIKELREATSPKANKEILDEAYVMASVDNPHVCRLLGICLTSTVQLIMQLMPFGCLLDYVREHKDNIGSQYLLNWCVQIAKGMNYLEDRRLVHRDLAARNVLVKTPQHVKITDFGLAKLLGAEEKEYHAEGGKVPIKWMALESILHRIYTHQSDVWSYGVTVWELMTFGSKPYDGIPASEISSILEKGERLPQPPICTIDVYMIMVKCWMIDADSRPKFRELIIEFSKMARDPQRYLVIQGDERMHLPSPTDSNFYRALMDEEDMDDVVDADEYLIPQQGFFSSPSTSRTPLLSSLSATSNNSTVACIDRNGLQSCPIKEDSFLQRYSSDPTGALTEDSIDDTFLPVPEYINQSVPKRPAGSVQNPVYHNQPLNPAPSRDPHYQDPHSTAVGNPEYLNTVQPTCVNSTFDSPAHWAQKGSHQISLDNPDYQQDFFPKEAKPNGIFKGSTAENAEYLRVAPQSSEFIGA

As for `CN(C)C/C=C/C(=O)Nc1cc2c(Nc3ccc(F)c(Cl)c3)ncnc2cc1O[C@@H]1CCOC1`, the pIC50 in the data set on NCI-H1975 [1] is 7.04; in the data set on BT-474 it was 7.27.

For the molecule `O=C(Nc1ccc2ncnc(Nc3cccc(Br)c3)c2c1)c1ccc(C(F)(F)F)cc1O`, the pIC50 was 6.31 in the data set with MCF7 [2], 5.79 in the data set with A549 and 6.17 in the data set on A-431 [3].

Consider `CC(C)(O)CC(=O)NCCc1ccc2ncnc(Nc3ccc(Oc4cccc(C(F)(F)F)c4)c(Cl)c3)c2c1`, for which the pIC50 with MCF7 [4] is 7.03; in data set [5], 7.48; with NCI-H1975 [6], 6.90; in data set [7], 7.72; with A-431 [8] it was 7.39; in data set [9], 8.01.

On to `CCOc1cc2ncnc(Nc3ccc(OCc4cccc(F)c4)c(Cl)c3)c2cc1NC(=O)/C=C/[C@@H]1CCCN1`, for which the pIC50 in the data set with NCI-N87 was 7.33; in the data set on NCI-H1975 [1], 7.47; in the data set with A-431 [3] it was 7.21.

Take `C=CC(=O)Nc1cc2c(Nc3ccc(F)c(Cl)c3)ncnc2cc1C#CC(C)(C)N1CCN(C)CC1` [AV-412 FREE BASE]: the pIC50 in data set [10] is 8.64; in data set [11], 9.29; in data set [12] it was 7.72; in data set [13] it was 9.10; in data set [14], 8.85; in the data set on A-431 [3], 7.00.

As for `C=CC(=O)Nc1cc2c(Nc3ccc(F)c(Cl)c3)ncnc2cc1OCCCN1CCOCC1` [CANERTINIB], the pIC50 with NCI-H1975 [1] is 7.00.

`COc1cc2ncnc(Nc3ccc(F)c(Cl)c3)c2cc1NC(=O)/C=C/CN1CCCCC1` [DACOMITINIB ANHYDROUS]: the negative logarithm of the IC50 (pIC50) in data set [15] is 7.54; with NCI-H1975 [1], 6.36.

For the molecule `C=CC(=O)N1CCC(Oc2cc3c(Nc4ccc(Cl)c(Cl)c4F)ncnc3cc2OC)CC1` [POZIOTINIB], growth in [16] was halved (GI50 at 72 h) at 3830 nM. Further, the pIC50 was 8.28 in data set [12], 9.00 in the data set on SK-BR-3, 8.24 with NCI-H1975 [1] and 9.05 with A-431 [3].

The term pIC50 denotes the negative decadic logarithm of the IC50, by convention in mol/L. High values mean a small IC50, low ones a large IC50. As a reminder, the GI50 is the concentration at which growth is held to half of that of the control. Low readings indicate more potent growth inhibition, high ones less potent growth inhibition.

For the origin of these results see ChEMBL document CHEMBL4270496, “How to train your inhibitor: Design strategies to overcome resistance to Epidermal Growth Factor Receptor inhibitors” (Eur J Med Chem, 2017).
